The target in one assay is DP IV (Homo sapiens, UniProt P27487). Description: DP IV inhibition IC50, parallel-synthesis compounds tested directly following synthesis (without purification). The format is biochemical. Set-up: IC50 DP4; other: tested directly following parallel synthesis, without purification; compounds of formula (Ib) from parallel synthesis, tested directly following synthesis. To be noted: DP IV inhibition; compounds of formula (Ib) from parallel synthesis, tested directly following synthesis (without purification); read-out: IC50. The method in brief:
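IC50 came from a 4-parameter fit of residual activity (linear 405 nm slopes for pNA release over ~18 min, relative to solvent-only wells). Gly-Pro-pNA was the substrate, cleaved by porcine kidney or recombinant human DP IV at room temperature in HEPES with 5% DMSO; duplicate 1:2 series started at 100 μM final.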
For orientation: IC50 means the concentration that inhibits the measured activity by half. As to `CC(N)c1c(-c2ccc(Cl)cc2Cl)ncn1CCCCc1ccccc1` (centres unmarked) [106b, 1-[5-(2,4-Dichloro-phenyl)-3-(4-phenyl-butyl)-3H-imidazol-4-yl]-ethylamine], the IC50 came to 28 µM.
On the same count and under the same terms, the result for `Cc1cc(Cn2cnc(-c3ccc(Cl)cc3Cl)c2CN)no1` [13b, C-[5-(2,4-Dichloro-phenyl)-3-(5-methyl-isoxazol-3-ylmethyl)-3H-imidazol-4-yl]-methylamine] reads 20.8 µM; that for `NCc1c(-c2ccc(Cl)cc2Cl)ncn1Cc1cccc(Cl)c1Cl` [46b, C-[3-(2,3-Dichloro-benzyl)-5-(2,4-dichloro-phenyl)-3H-imidazol-4-yl]-methylamine], 2.8 µM.
Same read-out and setting: the result for `NCc1c(-c2ccc(Cl)cc2Cl)ncn1CCOc1ccccc1` [100b, C-[5-(2,4-Dichloro-phenyl)-3-(2-phenoxy-ethyl)-3H-imidazol-4-yl]-methylamine] reads 34.3 µM.
Same read-out and setting: the result for `NCc1c(-c2ccc(Cl)cc2Cl)ncn1CCN1CCOCC1` [10b, C-[5-(2,4-Dichloro-phenyl)-3-(2-morpholin-4-yl-ethyl)-3H-imidazol-4-yl]-methylamine] reads 12.7 µM; that for `NCc1c(-c2ccc(Cl)cc2Cl)ncn1CCCCCCO` [16b, 6-[5-Aminomethyl-4-(2,4-dichloro-phenyl)-imidazol-1-yl]-hexan-1-ol], 12.7 µM.
Turning to `NCCc1c(-c2ccc(Cl)cc2Cl)ncn1CCc1cccc(Cl)c1` [37b, 2-[3-[2-(3-Chloro-phenyl)-ethyl]-5-(2,4-dichloro-phenyl)-3H-imidazol-4-yl]-ethylamine], the concentration for half-maximal inhibition (IC50) worked out at 48.7 µM.
Still for that read-out and setting: the result for `NCc1c(-c2ccc(Cl)cc2Cl)ncn1CCc1ccccn1` [85b, C-[5-(2,4-Dichloro-phenyl)-3-(2-pyridin-2-yl-ethyl)-3H-imidazol-4-yl]-methylamine] reads 24.4 µM.
Regarding `Cc1ccc(Cn2cnc(-c3ccc(Cl)cc3Cl)c2C(C)N)cc1` (centres unmarked) [116b, 1-[5-(2,4-Dichloro-phenyl)-3-(4-methyl-benzyl)-3H-imidazol-4-yl]-ethylamine], the IC50 worked out at 23.5 µM.
Same read-out and setting: the result for `NCc1c(-c2ccc(Cl)cc2Cl)ncn1Cc1cc(F)ccc1F` [119b, C-[5-(2,4-Dichloro-phenyl)-3-(2,5-difluoro-benzyl)-3H-imidazol-4-yl]-methylamine] reads 2.8 µM; that for `NCc1c(-c2ccc(Cl)cc2Cl)ncn1Cc1ccncc1` [94b, C-[5-(2,4-Dichloro-phenyl)-3-pyridin-4-ylmethyl-3H-imidazol-4-yl]-methylamine], 8.2 µM.
As for `NCc1c(-c2ccc(Cl)cc2Cl)ncn1Cc1ccc(F)cc1F` [Example 54b, C-[5-(2,4-dichloro-phenyl)-3-(2,4-difluoro-benzyl)-3H-imidazol-4-yl]-methylamine], the IC50 came out at 4.6 µM.
On the same count and under the same terms, the result for `NCCCc1c(-c2ccc(Cl)cc2Cl)ncn1CCc1c[nH]c2cc(Cl)ccc12` [105b, 3-[3-[2-(6-Chloro-1H-indol-3-yl)-ethyl]-5-(2,4-dichloro-phenyl)-3H-imidazol-4-yl]-propylamine] reads 37.9 µM.
On the same count and under the same terms, under `Cc1[nH]ncc1CCCn1cnc(-c2ccc(Cl)cc2Cl)c1CN` [87b, C-{5-(2,4-Dichloro-phenyl)-3-[3-(5-methyl-1H-pyrazol-4-yl)-propyl]-3H-imidazol-4-yl}-methylamine] stands 8.2 µM; under `COc1ccc(Cn2cnc(-c3ccc(Cl)cc3Cl)c2[C@H](C)N)c(OC)c1` [62b, (S)-1-[5-(2,4-Dichloro-phenyl)-3-(2,4-dimethoxy-benzyl)-3H-imidazol-4-yl]-ethylamine], 10 µM.
With `NCc1c(-c2ccc(Cl)cc2Cl)ncn1CCc1cccnc1` [9b, C-[5-(2,4-Dichloro-phenyl)-3-(2-pyridin-3-yl-ethyl)-3H-imidazol-4-yl]-methylamine], the half-maximal inhibitory concentration (IC50) turned out to be 7.3 µM.
The same measure, in the same setting: under `Cc1ccccc1Cn1cnc(-c2ccc(Cl)cc2Cl)c1CN` [Example 33b, C-[5-(2,4-dichloro-phenyl)-3-(2-methyl-benzyl)-3H-imidazol-4-yl]-methylamine] stands 4.6 µM.
On the same count and under the same terms, under `CC(C)CCCCCCn1cnc(-c2ccc(Cl)cc2Cl)c1CN` [99b, C-[5-(2,4-Dichloro-phenyl)-3-(7-methyl-octyl)-3H-imidazol-4-yl]-methylamine] stands 4.6 µM.
The same measure, in the same setting: under `NCc1c(-c2ccc(Cl)cc2Cl)ncn1CCN1CCCC1` [26b, C-[5-(2,4-Dichloro-phenyl)-3-(2-pyrrolidin-1-yl-ethyl)-3H-imidazol-4-yl]-methylamine] stands 40.6 µM.
With `NCc1c(-c2ccc(Cl)cc2Cl)ncn1Cc1ccc(Cl)cc1` [82b, C-[3-(4-Chloro-benzyl)-5-(2,4-dichloro-phenyl)-3H-imidazol-4-yl]-methylamine], the IC50 was 15.4 µM.
Still for that read-out and setting: the result for `C[C@H](N)c1c(-c2ccc(Cl)cc2Cl)ncn1CCNc1ccc([N+](=O)[O-])cn1` [111b, {2-[5-((S)-1-Amino-ethyl)-4-(2,4-dichloro-phenyl)-imidazol-1-yl]-ethyl}-(5-nitro-pyridin-2-yl)-amine] reads 21.7 µM; that for `CC(N)c1c(-c2ccc(Cl)cc2Cl)ncn1CCCc1ccccc1` (centres unmarked) [70b, 1-[5-(2,4-Dichloro-phenyl)-3-(3-phenyl-propyl)-3H-imidazol-4-yl]-ethylamine], 41.5 µM.

The assay is the same for the next values; noted with them: tested directly following parallel synthesis, without purification; read-out: IC50 DP4.
`NCc1c(-c2ccc(F)cc2Cl)ncn1Cc1ccc2c(c1)OCO2` [Example 16a, C-[3-Ben-zo[1,3]di-oxol-5-yl-methyl-5-(2-chlo-ro-4-fluoro-phenyl)-3H-imid-azol-4-yl]-methyl-amine]: the 50% inhibitory concentration (IC50) was found to be 28 µM.
Still for that read-out and setting: the result for `NCc1c(-c2ccc(Cl)cc2Cl)ncn1Cc1ccc2c(c1)OCO2` [Example 48a, C-[3-Ben-zo[1,3]di-oxol-5-yl-methyl-5-(2,4-dichloro-phenyl)-3H-imid-azol-4-yl]-methyl-amine] reads 0.1 µM; that for `NCc1c(-c2ccc(F)cc2Cl)ncn1Cc1cccc(C(F)(F)F)c1` [Example 6a, C-[5-(2-Chloro-4-fluoro-phenyl)-3-(3-tri-fluoromethyl-benzyl)-3H-imid-azol-4-yl]-methyl-amine], 17.2 µM; that for `NCc1c(-c2ccc(F)cc2Cl)ncn1Cc1cccc(Cl)c1Cl` [Example 20a, C-[5-(2-Chloro-4-fluoro-phenyl)-3-(2,3-di-chloro-benzyl)-3H-imid-azol-4-yl]-meth-ylamine], 34.3 µM.
Still for that read-out and setting: the result for `NCc1c(-c2ccc(F)cc2Cl)ncn1Cc1ccccn1` [Example 30a, C-[5-(2-Chloro-4-fluoro-phenyl)-3-pyri-din-2-yl-methyl-3H-imid-azol-4-yl]-methyl-amine] reads 25.3 µM.
Same read-out and setting: under `NCc1c(-c2ccc(F)cc2F)ncn1Cc1ccccc1F` [Example 86a, C-[5-(2,4-Difluoro-phenyl)-3-(2-fluoro-benzyl)-3H-imid-azol-4-yl]-methyl-amine] stands 32.5 µM; under `Cc1ccc(Cn2cnc(-c3ccc(F)cc3Cl)c2CN)cc1` [Example 24a, C-[5-(2-Chloro-4-fluoro-phenyl)-3-(4-methyl-benzyl)-3H-imid-dazol-4-yl]-methyl-amine], 43.3 µM; under `NCc1c(-c2ccc(F)cc2F)ncn1Cc1ccccn1` [Example 88a, C-[5-(2,4-Difluoro-phenyl)-3-pyri-din-2-yl-methyl-3H-imid-azol-4-yl]-methyl-amine], 29.8 µM.
For `CCOc1ccccc1Cn1cnc(-c2ccc(Cl)cc2Cl)c1CN` [Example 50a, C-[5-(2,4-Dichloro-phenyl)-3-(2-ethoxy-benzyl)-3H-imid-azol-4-yl]-methyl-amine], the IC50 was determined as 0.1 µM.
On the same count and under the same terms, under `NCc1c(-c2ccc(F)cc2F)ncn1Cc1ccccc1Cl` [Example 73a, C-[3-(2-Chloro-benzyl)-5-(2,4-difluoro-phenyl)-3H-imid-azol-4-yl]-methyl-amine] stands 27.1 µM; under `CCCn1cnc(-c2ccc(F)cc2Cl)c1CN` [Example 8a, C-[5-(2-Chloro-4-fluoro-phenyl)-3-pro-pyl-3H-imid-azol-4-yl]-methyl-amine], 48.7 µM; under `NCc1c(-c2ccc(Cl)cc2Cl)ncn1Cc1cccc(Cl)c1Cl` [Example 52a, C-[3-(2,3-Dichloro-benzyl)-5-(2,4-dichloro-phenyl)-3H-imid-azol-4-yl]-methyl-amine], 2.8 µM.
On the same count and under the same terms, under `NCc1c(-c2ccc(Cl)cc2Cl)ncn1Cc1cc(F)ccc1F` [Example 61a, C-[5-(2,4-Dichloro-phenyl)-3-(2,5-difluoro-benzyl)-3H-imid-azol-4-yl]-methyl-amine] stands 1.9 µM; under `NCc1c(-c2ccc(Cl)cc2Cl)ncn1Cc1cccs1` [Example 32a, C-[5-(2,4-Di-chloro-phenyl)-3-thio-phen-2-yl-methyl-3H-imid-azol-4-yl]-methyl-amine], 0.1 µM; under `COc1cccc(Cn2cnc(-c3ccc(Cl)cc3Cl)c2CN)c1` [Example 41a, C-[5-(2,4-Dichloro-phenyl)-3-(3-methoxy-benzyl)-3H-imid-azol-4-yl]-methyl-amine], 0.1 µM.
Regarding `NCc1c(-c2ccc(F)cc2Cl)ncn1Cc1ccc(Cl)cc1` [Example 22a, C-[3-(4-Chloro-benzyl)-5-(2-chloro-4-fluoro-phenyl)-3H-imid-azol-4-yl]-methyl-amine], the 50% inhibitory concentration (IC50) is 37.9 µM.
On the same count and under the same terms, the result for `NCc1c(-c2ccc(F)cc2Cl)ncn1Cc1ccc(F)c(F)c1` [Example 17a, C-[5-(2-Chloro-4-fluoro-phenyl)-3-(3,4-difluoro-benzyl)-3H-imid-azol-4-yl]-methyl-amine] reads 19 µM.
As to `NCc1c(-c2ccc(F)cc2Cl)ncn1Cc1cccnc1` [Example 31a, C-[5-(2-Chloro-4-fluoro-phenyl)-3-pyri-din-3-ylmethyl-3H-imid-azol-4-yl]-methyl-amine], the half-maximal inhibitory concentration (IC50) came out at 5.5 µM.
Regarding `Cc1ccccc1Cn1cnc(-c2ccc(Cl)cc2Cl)c1CN` [Example 46a, C-[5-(2,4-Dichloro-phenyl)-3-(2-methyl-benzyl)-3H-imid-azol-4-yl]-methyl-amine], the concentration for half-maximal inhibition (IC50) turned out to be 1 µM.

The values are drawn from patent publication US7728146B2, “Enzyme inhibitors” (Probiodrug AG, priority 2006, dated 2010).
